# Like-named read-outs stand apart in the source and are kept apart here.
# Experiments:
# [1] = tested on: P. falciparum Dd2 parasites; experiment: Fractional inhibitory concentration, artemisinin and MMV1557817 interaction; format: cell-based
# Procedure: Fractional inhibitory concentrations (FIC) were determined as previously described ([44]). […] The FIC for each drug was determined by EC50 of drug in a mixture/EC50 of drug alone, and the sum of FIC was determined by the addition of the two individual FIC values. Synergistic FIC is described as <1, additive = 1 < 2, and antagonism > 2 ([44]).
# [2] = tested on: MMV1557817-resistant parasites; experiment: 72 h killing assay, MMV1557817-resistant parasites versus parental Dd2; format: cell-based, P. falciparum
# [3] = tested on: PfNF54-s16-GFP late (IV–V) stage gametocytes; experiment: Image-based gametocyte viability assay; format: cell-based, P. falciparum; conditions: Plasmodium falciparum; stages IV–V, 72 h; read-out: IC50 Late-stage Gametocytes (mean ± SD)
# Procedure: (§1) Viability assays were performed as described previously ([32], [33]) against PfNF54-s16-GFP early(I–III), late (IV–V), and mature (V) stage gametocytes. Gametocytes were assessed at the appropriate time points following gametogenesis; early stage (day 2), late stage (day 8), and mature stage (day 12). Compounds diluted in 4% DMSO were transferred into 384-well imaging plates; gametocytes prepared as described previously (35) were added, and plates were incubated for 72 h in 5% CO2, 5% O2, and 60% humidity at 37°C. After 72 h incubation, 5 µL of MitoTracker Red CMH2XRos in phosphate buffered saline (PBS) was added per well, and plates were incubated overnight. Image acquisition and analysis were undertaken on the Opera QEHS micro-plate confocal imaging system. An Acapella-based script using the CMH2XRos fluorescent signal and the GFP-designated object quantifying viable stage-dependent parasite morphology identified gametocytes. Gametocyte viability was calculated as a percentage of the positive (5 µM puromycin) and negative (0.4% DMSO) controls. IC50 values were calculated using a 4-parameter log dose, non-linear regression analysis, with sigmoidal dose response (variable slope) curve fit using GraphPad Prism (ver 4.0). No constraints were used in the curve fit. […] Experiments were performed as two or three biological replicates in duplicate.
# [4] = tested on: PfNF54-s16-GFP mature (V) stage gametocytes; experiment: Image-based gametocyte viability assay; format: cell-based, P. falciparum; conditions: Plasmodium falciparum, 72 h, read-out: IC50 Mature-stage Gametocytes (mean ± SD)
# Procedure: as §1
# [5] = tested on: PfNF54-s16-GFP early (I–III) stage gametocytes; experiment: Image-based gametocyte viability assay; format: cell-based, P. falciparum; conditions: Plasmodium falciparum, 72 h, read-out: IC50 Early-stage Gametocytes (mean ± SD)
# Procedure: Viability assays were performed as described previously ([32], [33]) against PfNF54-s16-GFP early(I–III), late (IV–V), and mature (V) stage gametocytes. Gametocytes were assessed at the appropriate time points following gametogenesis; early stage (day 2), late stage (day 8), and mature stage (day 12). Compounds diluted in 4% DMSO were transferred into 384-well imaging plates; gametocytes prepared as described previously (35) were added, and plates were incubated for 72 h in 5% CO2, 5% O2, and 60% humidity at 37°C. After 72 h incubation, 5 µL of MitoTracker Red CMH2XRos in phosphate buffered saline (PBS) was added per well, and plates were incubated overnight. Image acquisition and analysis were undertaken on the Opera QEHS micro-plate confocal imaging system. An Acapella-based script using the CMH2XRos fluorescent signal and the GFP-designated object quantifying viable stage-dependent parasite morphology identified gametocytes. Gametocyte viability was calculated as a percentage of the positive (5 µM puromycin) and negative (0.4% DMSO) controls. IC50 values were calculated using a 4-parameter log dose, non-linear regression analysis, with sigmoidal dose response (variable slope) curve fit using GraphPad Prism (ver 4.0). No constraints were used in the curve fit. Chloroquine, artesunate, pyronaridine, pyrimethamine, dihydroartemisinin (DHA), and methylene blue were used as control compounds. Experiments were performed as two or three biological replicates in duplicate.
# [6] = tested on: Pf3D7; experiment: Parasite reduction ratio assay; format: cell-based, P. falciparum
# Procedure: Assays were performed as described previously with some alterations ([37]). […] Specifically, media containing compound was placed in wells every 24 h for up 120 h. […] Parasite growth was measured at day 21 using SYBR green I as described above. Fluorescence was used to determine at what treatment day wells became positive for growth when compared with the well before it; greater than double the fluorescence was determined to be a positive well. […] Experiments were performed in two or three biological replicates in quadruplicate.
# [7] = tested on: P. falciparum clinical isolates; experiment: Ex vivo drug susceptibility assay (schizont maturation) on clinical isolates; format: cell-based
# Procedure: (§2) Plasmodium isolates were collected from patients attending public health clinics in Timika (Papua, Indonesia), a region endemic for multidrug-resistant strains of P. vivax and P. falciparum ([38][–][40]). Patients with symptomatic malaria presenting to an outpatient facility were recruited into the study if infected with either P. falciparum or P. vivax, with a parasitemia of between 2,000 µL^−1 and 80,000 µL^−1, and the majority (>60%) of asexual parasites at the ring stage of development. Venous blood (5 mL) was collected by venipuncture, and after removal of patient white blood cells using Plasmodipur filters (EuroProxima B.V., The Netherlands), packed infected red blood cells (iRBCs) were used for the ex vivo drug susceptibility assay.
# (§3) Drug plates were pre-dosed by diluting the compounds in 50% methanol followed by lyophilization and storage at 4°C. Drug susceptibility of P. vivax and P. falciparum isolates was measured using a protocol modified from the WHO microtest as described previously ([40], [41]). […] A candle jar was used to mature the parasites at 37.0°C for 35–56 h. […] Thick blood films made from each well were stained with 5% Giemsa solution for 30 min and examined microscopically. The number of schizonts per 200 asexual-stage parasites was determined for each drug concentration and normalized to the control well without drug. The dose response data were analyzed using non-linear regression analysis, and the EC50 value was derived using an inhibitory sigmoid Emax model (In Vitro Analysis and Reporting Tool [IVART] [42, 43]).
# [8] = tested on: P. vivax clinical isolates; experiment: as above; format: cell-based
# Procedure: as §2, §3
# [9] = Plasmodium falciparum, ex vivo clinical isolates, n = 15, read-out: P. falciparum median EC50 (range)
# [10] = Plasmodium vivax, ex vivo clinical isolates, n = 6, read-out: P. vivax median EC50 (range)
# [11] = ex vivo clinical isolates, n = 6, read-out: P. vivax median EC50 (range)
compound,measurement,setting,value
"C[C@@H]1CC[C@H]2[C@@H](C)C(=O)O[C@@H]3O[C@@]4(C)CC[C@@H]1[C@]32OO4 [artemisinin, reference compound]",artemisinin mean FIC ± SEM,[1]; ratio MMV1557817:artemisinin 0:5,1.00 ± 0.12
same,artemisinin mean FIC ± SEM,[1]; ratio MMV1557817:artemisinin 1:4,0.75 ± 0.07
same,artemisinin mean FIC ± SEM,[1]; ratio MMV1557817:artemisinin 2:3,0.37 ± 0.06
same,artemisinin mean FIC ± SEM,[1]; ratio MMV1557817:artemisinin 3:2,0.16 ± 0.03
same,artemisinin mean FIC ± SEM,[1]; ratio MMV1557817:artemisinin 4:1,0.06 ± 0.01
same,change of susceptibility compared with parental Dd2,[2],marginally but significantly sensitized
"C[C@H]1[C@@H](O)O[C@@H]2O[C@@]3(C)CC[C@H]4[C@H](C)CC[C@@H]1[C@@]24OO3 [DHA, dihydroartemisinin]",IC50,[3],35 ± 12 nM
same,IC50,[4],103 ± 30 nM
same,IC50,[5]; stages I–III,16 ± 2 nM
COc1ccc2nc3cc(Cl)ccc3c(Nc3cc(CN4CCCC4)c(O)c(CN4CCCC4)c3)c2n1 [pyronaridine],IC50,[3],2280 ± 679 nM
same,IC50,[4],1250 ± 120 nM
same,IC50,[5]; stages I–III,67 ± 7 nM
CCN(CC)CCCC(C)Nc1ccnc2cc(Cl)ccc12 (stereo not drawn) [chloroquine],99.9% PCT,"[6]; Pf3D7, 10× EC50",53 h
same,Lag phase,"[6]; Pf3D7, 10× EC50",0 h
same,Log (PRR),"[6]; Pf3D7, 10× EC50, over one cycle",3.9 ± 0.2
same,EC50,"[7]; Plasmodium falciparum, read-out: P. falciparum median EC50 (range), ex vivo clinical isolates, n = 15",65 nM
same,EC50,"[7]; read-out: P. falciparum median EC50 (range), ex vivo clinical isolates, n = 15, listed as CQ",64.8 nM
same,EC50,"[8]; Plasmodium vivax, read-out: P. vivax median EC50 (range), ex vivo clinical isolates, n = 6",36 nM
same,EC50,"[8]; read-out: P. vivax median EC50 (range), ex vivo clinical isolates, n = 6, listed as CQ",36.4 nM
same,IC50,[5],157 ± 3.5 nM
"CN(C)c1ccc2nc3ccc(=[N+](C)C)cc-3sc2c1 [Methylene Blue, methylene blue]",IC50,[3],52 ± 2 nM
same,IC50,[4],63 ± 26 nM
same,IC50,[5]; stages I–III,110 ± 4 nM
COc1ccc(C[C@H](N)C(=O)N[C@H]2[C@@H](O)[C@H](n3cnc4c(N(C)C)ncnc43)O[C@@H]2CO)cc1 [puromycin],IC50,[3],94 ± 5 nM
same,IC50,[4],73 ± 24 nM
same,IC50,[5]; stages I–III,163 ± 18 nM
OC(c1cc(C(F)(F)F)nc2c(C(F)(F)F)cccc12)C1CCCCN1 (stereo not drawn) [mefloquine],EC50,[7]; [9],10 nM
same,EC50,[8]; [10],11.2 nM
same,EC50,[8]; [11],11 nM
Clc1ccc2c(N3CCN(CCCN4CCN(c5ccnc6cc(Cl)ccc56)CC4)CC3)ccnc2c1 [piperaquine],EC50,[7]; [9],60.8 nM
same,EC50,"[7]; ex vivo clinical isolates, n = 15, read-out: P. falciparum median EC50 (range)",61 nM
same,EC50,[8]; [10],46.6 nM
same,EC50,[8]; [11],47 nM
